26 molecules from patent US5270339A, “Phenoxybenzene derivative” (Kanagafuchi Kagaku Kogyo Kabushiki Kaisha, priority 1991, dated 1993) can be followed below.

For data set [1], the system named is experimental amnesia in mice induced by cycloheximide. Description: Anti-amnesic effect: passive avoidance task (step-through), cycloheximide-induced amnesia. Format: in vivo, ddY male mice. To be noted: for Step-through latency: mean of group; for responders at 3 mg/kg / responders at 1 mg/kg: Mus musculus, mice with latency > 100 seconds, read-out: Ratio of memory. As for the experimental part:
(§1) As experimental animals, Wistar male rats and ddY male mice were used for the tests after they were housed for a week under every 12 hours' dark-light cycle at room temperature of 24° to 26° C.
The effect on experimental amnesia in mice induced by cycloheximide was evaluated.
The experiment was carried out using an experimental apparatus of passive avoidance task for mice (made by Ohara-ika-sangyo K. K.) comprising a box divided into the two compartments of dark and light. That is, the dark compartment [a box having a reverse trapezoid cross section (height: 8 cm, base line: 5 cm, oblique line: 9.5 cm) and having the length of 14 cm] was shield from a light with a black plastic case and was floored with stainless grids for giving an electrical shock so that an electricity might be turned on a determined time after interception of a photobeam placed in the dark compartment. The light compartment made of transparent plastic (a box of the same shape as that of the dark compartment having the length of 16 cm, lightened from a location spaced 25 cm above by a 60 W electric lamp) was provided adjacent to the dark compartment. Between the two compartments, there was provided a circular entrance having the diameter of 3 cm with a guillotine door which could be opened and closed. By using the above-mentioned dark-light box, the experiment was carried out according to the following procedure.
A mouse (5 week-old) previously conditioned in the dark-light box was put in the light compartment and the guillotine door was opened. Three seconds after the mouse moved into the dark compartment and interrupted the photobeam, 0.3 mA electrical shock was given to limbs for 3 seconds from the floor grid (aquisition trial). Just after the mouse rushed into the light compartment, the door was shut and the […] in the light compartment was picked out to return to his home cage. After 24 hours, the mouse was placed again in the light compartment and the period from the opening of the guillotine door to the time the mouse completely entered the dark compartment was recorded maximally 300 seconds as a step-through latency (retention trial).
The amnesia was induced by subcutaneous injection of cycloheximide (120 mg/kg) dissolved in saline 10 minutes before the aquisition trial. As a control, the same amount of saline alone was administered. […]
A ratio of number of mice showing the step-through latency of more than 100 seconds in the group was defined as a ratio of memory for convenience's sake.
The step-through latency in Table 2 was the mean value for each treated group.

Data set [2] deals with forced swimming test with rats (duration of immobility). Description: Antidepressant activity: forced swimming test using rats. Format: in vivo, Wistar male rats. To be noted: for Suppression of duration of immobility: vs saline; for Effect on duration of immobility (in words): oral administration. How it is done: as §1
That is, a rat (5 week-old) was placed into a glass cylinder having the inside diameter of 18 cm and the height of 40 cm which contained water (water temperature: 25° C.) up to its height of 15 cm. After 15 minutes, the rat was picked up followed by drying and then returned to his home cage. After 24 hours, the rat was again placed into the water in the same cylinder. The duration of immobility (the time rat kept motionless) was accumulatively measured with a stopwatch for five minutes (a five minutes' test). Each test compound was suspended in saline. The administration was carried out three times, at 24, 5 and 1 hour before the five minutes' test in case of an intraperitoneal administration or with only a single administration at 1 hour before the five minutes' test in case of an oral administration to examine the antidepressant effect.
The duration of immobility in Table 4 is the mean value for […] in each group. Suppression is expressed as a ratio in percentage of a reduction of the duration of immobility in the group administered with the test compound to that in the control group administered with saline alone.

Data set [3] in a line: Acute toxicity test, oral. Format: in vivo, ddY male mice. To be noted: mouse, in vivo, ddY mice, 2 weeks observation. How it is done: With respect to the compounds 1 to 86 shown in Table 1 as test compounds, the acute toxicity was examined using ddY mice according to the following method.
In each group, six male ddY mice weighing 27 to 30 g were employed. The compounds 1 to 86 suspended in an aqueous solution of 0.5% sodium carboxymethylcellulose were administered orally in a volume of 0.1 ml/10 g body weight. […] The LD50 (mg/kg) values were estimated from the ratio of the number of dead mice to the number of mice used.

Where [4] appears, read: p.o., 30 mg/kg, 1 hour before test.

The term LD50 denotes the dose expected to kill half of the subjects tested. Low readings indicate greater toxicity, high ones lower toxicity. Consider `O=C1NCCC1=Cc1cccc(Oc2ccccc2)c1` [Compound 1], for which, in data set [1] (3 mg/kg oral), the Step-through latency is 198 s. Also, in data set [1] (3 mg/kg oral), the responders at 3 mg/kg stood at 72%. The Duration of immobility worked out at 164 s in data set [2] (i.p., 1 mg/kg/time, 24, 5 and 1 hour before test); 101 s in data set [2] (i.p., 3 mg/kg/time, 24, 5 and 1 hour before test); 71 s in data set [2] (i.p., 10 mg/kg/time, 24, 5 and 1 hour before test); 54 s in data set [2] (i.p., 30 mg/kg/time, 24, 5 and 1 hour before test); 190 s in data set [2] (p.o., 0.3 mg/kg, 1 hour before test); 165 s in data set [2] (p.o., 1 mg/kg, 1 hour before test). For the same molecule, the Duration of immobility in data set [2] (p.o., 3 mg/kg, 1 hour before test) was determined as 137 s; in data set [2] (p.o., 10 mg/kg, 1 hour before test) it was 76 s; in data set [2] (setting [4]), 34 s. The “Suppression of duration of immobility” value in data set [2] (i.p., 1 mg/kg/time) was 20%; in data set [2] (i.p., 3 mg/kg/time), 50%; in data set [2] (i.p., 10 mg/kg/time), 65%; in data set [2] (i.p., 30 mg/kg/time), 74%; in data set [2] (p.o., 0.3 mg/kg) it was 7%; in data set [2] (p.o., 1 mg/kg), 20%. Besides, the “Suppression of duration of immobility” value in data set [2] (p.o., 3 mg/kg) was determined as 33%; in data set [2] (p.o., 10 mg/kg) it was 63%; in data set [2] (p.o., 30 mg/kg) it was 83%. The LD50 at 336 h in data set [3] is ≥ 500 mg/kg.
On to `COc1ccc(CN2CCC(=Cc3cccc(Oc4ccccc4)c3)C2=O)cc1` [Compound 49], for which, in data set [1] (1 mg/kg oral), the Step-through latency amounted to 102 s and the responders at 1 mg/kg was found to be 50%. Further, the LD50 at 336 h in data set [3] was ≥ 500 mg/kg.
As for `O=C1C(=Cc2cccc(Oc3ccccc3)c2)CCN1Cc1ccc(Cl)cc1` [Compound 50], in data set [1] (3 mg/kg oral), the Step-through latency worked out at 100 s and the responders at 3 mg/kg turned out to be 50%. In addition, the LD50 at 336 h in data set [3] was ≥ 500 mg/kg.
Turning to `CC1CC(=Cc2cccc(Oc3ccccc3)c2)C(=O)N1` (centres unmarked) [Compound 52], in data set [1] (3 mg/kg oral), the Step-through latency came to 120 s and the responders at 3 mg/kg amounted to 50%. The median lethal dose (LD50) at 336 h in data set [3] was ≥ 500 mg/kg.
Regarding `CCN1C(=O)C(=Cc2cccc(Oc3ccccc3)c2)CC1C` (centres unmarked) [Compound 53], in data set [1] (3 mg/kg oral), the Step-through latency was 114 s and the responders at 3 mg/kg was 50%. In data set [3], the LD50 at 336 h is ≥ 500 mg/kg.
Consider `COC1CC(=Cc2cccc(Oc3ccccc3)c2)C(=O)N1` (centres unmarked) [Compound 55], for which, in data set [1] (3 mg/kg oral), the Step-through latency is 80 s and the responders at 3 mg/kg amounted to 25%. The LD50 at 336 h in data set [3] was ≥ 500 mg/kg.
With `CCOC1CC(=Cc2cccc(Oc3ccccc3)c2)C(=O)N1` (centres unmarked) [Compound 56], in data set [1] (3 mg/kg oral), the Step-through latency stood at 129 s and the responders at 3 mg/kg was determined as 63%. Further, in data set [3], the median lethal dose (LD50) at 336 h is ≥ 500 mg/kg.
Consider `CCOC1CC(=Cc2cccc(Oc3ccccc3)c2)C(=O)N1CC` (centres unmarked) [Compound 57], for which, in data set [1] (3 mg/kg oral), the Step-through latency was found to be 157 s and the responders at 3 mg/kg was 50%. Further, the 50% lethal dose (LD50) at 336 h in data set [3] is ≥ 500 mg/kg.
Consider `O=C1NC(CO)CC1=Cc1cccc(Oc2ccccc2)c1` (centres unmarked) [Compound 58], for which, in data set [1] (1 mg/kg oral), the Step-through latency was 111 s and the responders at 1 mg/kg worked out at 50%. The LD50 at 336 h in data set [3] was ≥ 500 mg/kg.
With `CCN1CC(C)C(=Cc2cccc(Oc3ccccc3)c2)C1=O` (centres unmarked) [Compound 61], in data set [1] (1 mg/kg oral), the Step-through latency came to 90 s and the responders at 1 mg/kg came out at 50%. In addition, in data set [3], the median lethal dose (LD50) at 336 h is ≥ 500 mg/kg.
For the molecule `O=C1NCC(c2ccccc2)C1=Cc1cccc(Oc2ccccc2)c1` (centres unmarked) [Compound 62], in data set [1] (3 mg/kg oral), the Step-through latency is 170 s and the responders at 3 mg/kg was determined as 50%. Further, the LD50 at 336 h in data set [3] is ≥ 500 mg/kg.
As to `CCCCN1CCC(=Cc2cccc(Oc3ccccc3)c2)C1` [Compound 68], in data set [1] (1 mg/kg oral), the Step-through latency stood at 179 s and the responders at 1 mg/kg is 75%. Besides, in data set [3], the LD50 at 336 h is ≥ 500 mg/kg.
The like results for `C=CCN1CCC(=Cc2cccc(Oc3ccccc3)c2)C1` [Compound 69] were, in that order, 102 s, 50% and ≥ 500 mg/kg.
Take `OCCN1CCC(=Cc2cccc(Oc3ccccc3)c2)C1` [Compound 71]: in data set [1] (1 mg/kg oral), the Step-through latency was 212 s and the responders at 1 mg/kg came out at 75%. Further, in data set [3], the 50% lethal dose (LD50) at 336 h is ≥ 500 mg/kg.
The corresponding values for `NC(=O)N1CCC(=Cc2cccc(Oc3ccccc3)c2)C1` [Compound 73] are 119 s, 50% and ≥ 500 mg/kg.
`CC(=O)N1CCC(=Cc2cccc(Oc3ccccc3)c2)C1` [Compound 74]: in data set [1] (1 mg/kg oral), the Step-through latency is 107 s and the responders at 1 mg/kg was 50%. In data set [3], the LD50 at 336 h was ≥ 500 mg/kg.
`CCC1C(=Cc2cccc(Oc3ccccc3)c2)CCN1CC` (centres unmarked) [Compound 78]: in data set [1] (1 mg/kg oral), the Step-through latency was determined as 132 s and the responders at 1 mg/kg came out at 75%. Also, the median lethal dose (LD50) at 336 h in data set [3] was ≥ 500 mg/kg.
For `CCCCC1C(=Cc2cccc(Oc3ccccc3)c2)CCN1CC` (centres unmarked) [Compound 79], in data set [1] (1 mg/kg oral), the Step-through latency is 168 s and the responders at 1 mg/kg amounted to 50%. Further, the LD50 at 336 h in data set [3] was ≥ 500 mg/kg.
The corresponding values for `CCC1C(=Cc2cccc(Oc3ccccc3)c2)CCN1C(C)=O` (centres unmarked) [Compound 80] are 100 s, 50% and ≥ 500 mg/kg.
As for `O=C1NCCC1Cc1cccc(Oc2ccccc2)c1` (centres unmarked) [Compound 81], in data set [1] (1 mg/kg oral), the Step-through latency is 70 s and the responders at 1 mg/kg amounted to 25%. The LD50 at 336 h in data set [3] was ≥ 500 mg/kg.
For the molecule `CCN1CCC(Cc2cccc(Oc3ccccc3)c2)C1=O` (centres unmarked) [Compound 82], in data set [1] (3 mg/kg oral), the Step-through latency came to 102 s and the responders at 3 mg/kg is 38%. The median lethal dose (LD50) at 336 h in data set [3] was ≥ 500 mg/kg.
Take `CCN1CCC(Cc2cccc(Oc3ccccc3)c2)C1` (centres unmarked) [Compound 83]: in data set [1] (1 mg/kg oral), the Step-through latency amounted to 188 s and the responders at 1 mg/kg is 100%. For the same molecule, the 50% lethal dose (LD50) at 336 h in data set [3] is ≥ 500 mg/kg.
With `C(=C1CCN(C2CC2)C1)c1cccc(Oc2ccccc2)c1` [Compound 85], in data set [1] (1 mg/kg oral), the Step-through latency was 97 s and the responders at 1 mg/kg was found to be 25%. In addition, the LD50 at 336 h in data set [3] was ≥ 500 mg/kg.
With `S=C1NCCC1=Cc1cccc(Oc2ccccc2)c1` [Compound 86], in data set [1] (3 mg/kg oral), the Step-through latency was found to be 70 s and the responders at 3 mg/kg was 25%. In addition, the median lethal dose (LD50) at 336 h in data set [3] is ≥ 500 mg/kg.
Consider `CN(C)CCCN1c2ccccc2CCc2ccccc21` [Imipramine, imipramine, reference compound], for which the Duration of immobility in data set [2] (i.p., 100 mg/kg/time, 24, 5 and 1 hour before test) stood at 79 s; in data set [2] (setting [4]) it was 210 s. Also, the “Suppression of duration of immobility” value in data set [2] (i.p., 100 mg/kg/time) is on record as 61%; in data set [2] (p.o., 30 mg/kg), -2%. In addition, the “Effect on duration of immobility (in words)” value in data set [2] is “no effect”.
On to `C#CCN(C)Cc1ccccc1` [Pargyline, pargyline, reference compound], for which the “Effect on duration of immobility (in words)” value in data set [2] is listed as “prolongation of the duration of immobility”. This molecule also gave a Duration of immobility in data set [2] (setting [4]) of 244 s. Besides, the “Suppression of duration of immobility” value in data set [2] (p.o., 30 mg/kg) is recorded as -19%.
